US20110008888A1, “Novel Genetic Approaches to Reduce or Inhibit Tumorgenicity of Human Embryonic Stem Cells and Derivatives Following Transplantation” (The John Hopkins University, priority 2005, published 2011)
Entries after “also recorded” stand apart in the source; their conditions may differ. Read-outs that look alike come from different tables or passages of the source.

Columns and labels:
[1] = system: delayed rectifier K+ currents (IKDR) in mESCs; assay: Whole-cell patch clamp, block of IKDR in undifferentiated mESCs; type: cell-based, mouse; conditions: for IC50: whole-cell patch clamp, room temperature
hESCs = assay: Cell proliferation assay, hESCs (colony parameters after 6 days); type: cell-based, human; conditions: for effect on proliferation of hESCs: dose-dependent, p<0.05
mESCs = assay: Cell proliferation assay, mESCs (viable cell count after 48 hours); type: cell-based, mouse; conditions: for EC50: mESCs, cell number after 48 hours, read-out: half-effective concentration (EC50) for inhibition of mESC proliferation; for effect on proliferation of mESCs (words): dose-dependent, p<0.05
IKDR in hESCs = assay: Whole-cell patch clamp, block of IKDR in undifferentiated hESCs; type: cell-based, human; conditions: pluripotent hESCs (H1)
ESCs = assay: Cytotoxic effects of K+ channel blockers on ESCs; conditions: high concentrations

| Compound | IC50 ([1]; undifferentiated mESCs) | effect on proliferation of hESCs (hESCs) | EC50 (mESCs; Mus musculus) | effect on proliferation of mESCs (words) (mESCs) | EC50 (hESCs; hESCs, colony parameters after 6 days, read-out: EC50 for inhibition of hESC proliferation) | IC50 (IKDR in hESCs) | effect on proliferation of mESCs (words) (mESCs; listed as TEA+) | EC50 (mESCs) | IKDR component sensitive to blocker ([1]; mESCs, 100 nM IBTX) | current inhibition of IKDR in mESCs ([1]; undifferentiated mESCs, IBTX 100 nM, n=3) | cytotoxic effects (ESCs) |
| --- | --- | --- | --- | --- | --- | --- | --- | --- | --- | --- | --- |
| Nc1ccncc1 [4-AP, 4-aminopyridine] | 550 ± 170 µM | significantly reduced | 4000 ± 1800 µM | significantly reduced |  |  |  |  |  |  |  |
| CC[N+](CC)(CC)CC [TEA] | 1400 ± 380 µM | significantly reduced |  | significantly reduced | 3800 ± 100 µM | 2100 ± 200 µM | significantly inhibited | 11900 ± 1200 µM |  |  |  |
| iberiotoxin [IBTX] |  | significantly reduced |  | significantly reduced; also recorded: dose-dependently reduced |  |  |  |  | sensitive | 33.2±12.7% | cytotoxic effects |
